Target: T1, HDAC6 enzyme (Homo sapiens, UniProt Q9UBN7)
T1 construct: HDAC6 enzyme prepared by transducing full length HDAC6 gene into Sf-9 insect cells; GST; purchased SignalChem; host or cells: Sf-9 insect cells
T1 sequence (Q9UBN7 1-1215): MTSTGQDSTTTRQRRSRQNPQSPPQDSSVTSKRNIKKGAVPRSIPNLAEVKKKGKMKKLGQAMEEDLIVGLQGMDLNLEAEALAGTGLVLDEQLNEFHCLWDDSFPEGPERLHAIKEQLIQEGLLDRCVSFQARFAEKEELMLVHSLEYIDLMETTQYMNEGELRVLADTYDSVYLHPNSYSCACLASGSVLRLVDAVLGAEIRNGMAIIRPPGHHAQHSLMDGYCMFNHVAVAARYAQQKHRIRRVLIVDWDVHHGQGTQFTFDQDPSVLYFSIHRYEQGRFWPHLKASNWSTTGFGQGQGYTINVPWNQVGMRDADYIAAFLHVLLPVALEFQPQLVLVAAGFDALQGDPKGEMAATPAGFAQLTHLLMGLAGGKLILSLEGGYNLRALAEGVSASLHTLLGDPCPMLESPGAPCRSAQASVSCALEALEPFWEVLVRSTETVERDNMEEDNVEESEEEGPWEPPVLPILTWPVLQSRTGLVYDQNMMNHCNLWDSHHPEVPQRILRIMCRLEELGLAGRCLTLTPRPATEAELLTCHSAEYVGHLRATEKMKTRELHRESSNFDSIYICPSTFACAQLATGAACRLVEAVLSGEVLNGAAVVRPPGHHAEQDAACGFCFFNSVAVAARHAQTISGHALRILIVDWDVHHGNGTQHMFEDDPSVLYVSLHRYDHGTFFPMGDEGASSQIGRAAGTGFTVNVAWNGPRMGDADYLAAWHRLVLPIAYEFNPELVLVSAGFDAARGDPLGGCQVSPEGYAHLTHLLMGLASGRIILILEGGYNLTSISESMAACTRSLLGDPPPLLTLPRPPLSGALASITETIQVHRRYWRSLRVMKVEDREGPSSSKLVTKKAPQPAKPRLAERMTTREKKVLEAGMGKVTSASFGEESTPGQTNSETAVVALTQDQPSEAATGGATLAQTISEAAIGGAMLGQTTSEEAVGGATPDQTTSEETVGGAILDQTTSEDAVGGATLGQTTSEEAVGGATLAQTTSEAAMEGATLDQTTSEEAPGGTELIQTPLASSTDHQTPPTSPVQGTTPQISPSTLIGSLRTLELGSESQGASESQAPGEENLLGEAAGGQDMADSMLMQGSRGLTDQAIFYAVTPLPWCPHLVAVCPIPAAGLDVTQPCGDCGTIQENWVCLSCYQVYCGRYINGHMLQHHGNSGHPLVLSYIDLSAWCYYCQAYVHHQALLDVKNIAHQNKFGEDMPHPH
Assay: HDAC6 enzyme inhibitory assay (HDAC-Glo I/II Assay kit)
Format: biochemical
Conditions: wells without enzyme = 100% inhibition; for inhibition at 10 µM: read-out: HDAC6 inhibitory rate (%) (10 μM)
Procedure, shortened: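 Full-length GST-purified HDAC6 from Sf-9 cells preincubated with compound 60 min at room temperature in Tris-HCl pH 7.5 buffer with MgCl2, KCl, NaCl, glutathione, Tween-20. Substrate-developer reaction 20 min, luminescence read; no-enzyme wells set as 100% inhibition.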

O=C1c2cc(-c3nnc(C(F)F)o3)ccc2CN1[C@H](c1ccccn1)[C@@H](O)c1cccc(F)c1 (single isomer, unassigned) [Example 61, 6-[5-(difluoromethyl)-1,3,4-oxadiazol-2-yl]-2-[(1R*,2S*)-2-(3-fluorophenyl)-2-hydroxy-1-(pyridin-2-yl)ethyl]-2,3-dihydro-1H-isoindol-1-one]
inhibition at 10 µM: 100%

O=C1c2cc(-c3nnc(C(F)F)o3)ccc2CN1[C@H](c1ccccn1)[C@@H](O)c1cccc(F)c1 (single isomer, unassigned) [Example 62, 6-[5-(difluoromethyl)-1,3,4-oxadiazol-2-yl]-2-[(1R*,2S*)-2-(3-fluorophenyl)-2-hydroxy-1-(pyridin-2-yl)ethyl]-2,3-dihydro-1H-isoindol-1-one]
HDAC6 inhibitory rate (%) (10 μM): 100%

O=C1c2cc(-c3nnc(C(F)F)o3)ccc2CN1[C@H](c1ccc(F)cn1)[C@@H](O)c1cccc(F)n1 (single isomer, unassigned) [Example 66, 6-[5-(difluoromethyl)-1,3,4-oxadiazol-2-yl]-2-[(1R*,2R*)-1-(5-fluoropyridin-2-yl)-2-(6-fluoropyridin-2-yl)-2-hydroxyethyl]-2,3-dihydro-1H-isoindol-1-one]
inhibition at 10 µM: 100%

O=C1c2cc(-c3nnc(C(F)F)o3)ccc2CN1[C@H](c1ccc(F)cn1)[C@@H](O)c1cccc(F)n1 (single isomer, unassigned) [Example 67, 6-[5-(difluoromethyl)-1,3,4-oxadiazol-2-yl]-2-[(1R*,2R*)-1-(5-fluoropyridin-2-yl)-2-(6-fluoropyridin-2-yl)-2-hydroxyethyl]-2,3-dihydro-1H-isoindol-1-one]
HDAC6 inhibitory rate (%) (10 μM) (10 µM): 99%

O=C1c2cc(-c3nnc(C(F)F)o3)ccc2CN1[C@H](c1ncccn1)[C@@H](O)c1cccc(F)c1 (single isomer, unassigned) [Example 68, 6-[5-(difluoromethyl)-1,3,4-oxadiazol-2-yl]-2-[(1R*,2S*)-2-(3-fluorophenyl)-2-hydroxy-1-(pyrimidin-2-yl)ethyl]-2,3-dihydro-1H-isoindol-1-one]
inhibition at 10 µM: 101%

O=C1c2cc(-c3nnc(C(F)F)o3)ccc2CN1[C@H](c1ncccn1)[C@@H](O)c1cccc(F)c1 (single isomer, unassigned) [Example 69, 6-[5-(difluoromethyl)-1,3,4-oxadiazol-2-yl]-2-[(1R*,2S*)-2-(3-fluorophenyl)-2-hydroxy-1-(pyrimidin-2-yl)ethyl]-2,3-dihydro-1H-isoindol-1-one]
HDAC6 inhibitory rate (%) (10 μM) (10 µM): 100%

O=C1c2cc(-c3nnc(C(F)F)o3)ccc2CN1[C@H](C1CCOCC1)[C@@H](O)c1cccc(Cl)c1 (single isomer, unassigned) [Example 70, 2-[(1R*,2S*)-2-(3-chlorophenyl)-2-hydroxy-1-(oxan-4-yl)ethyl]-6-[5-(difluoromethyl)-1,3,4-oxadiazol-2-yl]-2,3-dihydro-1H-isoindol-1-one]
inhibition at 10 µM: 101%

O=C1c2cc(-c3nnc(C(F)F)o3)ccc2CN1[C@H](C1CCOCC1)[C@@H](O)c1cccc(Cl)c1 (single isomer, unassigned) [Example 71, 2-[(1R*,2S*)-2-(3-chlorophenyl)-2-hydroxy-1-(oxan-4-yl)ethyl]-6-[5-(difluoromethyl)-1,3,4-oxadiazol-2-yl]-2,3-dihydro-1H-isoindol-1-one]
HDAC6 inhibitory rate (%) (10 μM): 101%

O=C1c2cc(-c3nnc(C(F)F)o3)ccc2CN1[C@H](C1CC1)[C@@H](O)c1ncccn1 (single isomer, unassigned) [Example 73, 2-[(1R*,2R*)-1-cyclopropyl-2-hydroxy-2-(pyrimidin-2-yl)ethyl]-6-[5-(difluoromethyl)-1,3,4-oxadiazol-2-yl]-2,3-dihydro-1H-isoindol-1-one]
inhibition at 10 µM: 100%

O=C1c2cc(-c3nnc(C(F)F)o3)ccc2CN1[C@H](C1CC1)[C@@H](O)c1ncccn1 (single isomer, unassigned) [Example 74, 2-[(1R*,2R*)-1-cyclopropyl-2-hydroxy-2-(pyrimidin-2-yl)ethyl]-6-[5-(difluoromethyl)-1,3,4-oxadiazol-2-yl]-2,3-dihydro-1H-isoindol-1-one]
HDAC6 inhibitory rate (%) (10 μM) (10 µM): 96%
